Source: US20110124634A1, “BIOACTIVE COMPOUNDS FOR TREATMENT OF CANCER AND NEURODEGENERATIVE DISEASES” (PONIARD PHARMACEUTICALS, INC., priority 2008, published 2011)
Like-named read-outs stand apart in the source and are kept apart here.

Columns and labels:
BT474 = experiment: MTS assay (cytotoxicity), growth inhibition of BT474; type: cell-based; settings: Homo sapiens, BT-474, 120 h
Procedure, shortened: (§1)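 Cells seeded at 2000/well for 24 h, then exposed to increasing inhibitor concentrations for 5 days. Viable cells measured by MTS, absorbance 490 nm after 2-4 h, cell-free background subtracted. IC50 from nonlinear least-squares fit of absorbance vs log concentration.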

MCF-7 = experiment: MTS assay (cytotoxicity), growth inhibition of MCF-7; type: cell-based; settings: Homo sapiens, MCF7, 120 h
Procedure, shortened: as §1

HSP90 = experiment: Fluorescence polarization (FP) assay for affinity to HSP90; type: binding; settings: means of three independent experiments
Description: Most of the compounds synthesized were evaluated for their ability to induce degradation of the HSP90 client protein Her2 in SKBR-3 cells. Selected compounds were evaluated in a fluorescence polarization (FP) assay for their affinity to HSP90.

SKBR-3 = experiment: MTS assay (cytotoxicity), growth inhibition of SKBR-3; type: cell-based; settings: Homo sapiens, SK-BR-3, 120 h
Procedure, shortened: as §1

[1] = tested on: HSP90 client protein Her2 in SKBR-3 cells; experiment: Her-2 degradation assay (Her-2 ELISA) in SKBr-3 cells; type: cell-based; settings: Homo sapiens
Procedure, shortened: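 SKBr-3 cells in McCoy's 5a/10% FBS treated with increasing inhibitor concentrations for 18 h; lysates (2 ug protein, BCA-normalised) assayed by Her-2 ELISA at 450 nm with no-lysate background subtracted. IC50 from nonlinear fit of A450 versus log inhibitor concentration.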

HT29 = experiment: MTS assay (cytotoxicity), growth inhibition of HT29; type: cell-based; settings: Homo sapiens, HT-29, 120 h
Description: (§2) Cells were seeded in 96-well plates at 2000 cells/well in a final culture volume of 100 ul for 24 hours before the addition of 25 ul of increasing concentrations of inhibitors that was incubated for 5 days. Viable cell number was determined using the CellTiter 96 AQueous One Solution Cell Proliferation Assay (Promega). Plates were read at 490 nm absorbance 2-4 hours after addition of the MTS reagent using a multiwell plate spectrophotometer. Background was determined by measuring the Abs 490 nm of cell culture medium and MTS in the absence of cells. The background value was subtracted from all values. Absorbance 490 nm values for each inhibitor were plotted against the log 10 inhibitor concentration, and IC50 values were calculated using a nonlinear least-square curve fitting program in Prism 5.

hMEpiC = experiment: MTS assay (cytotoxicity), growth inhibition of human mammary epithelial cell; type: cell-based; settings: Table 4, means of three independent experiments
Description: as §2

[2] = Table 4, 5 days, means of three independent experiments, read-out: BT474 IC50 (growth inhibition)
[3] = Table 4, 5 days, means of three independent experiments, read-out: MCF-7 IC50 (growth inhibition)
[4] = Table 4, 5 days, means of three independent experiments, read-out: SKBR-3 IC50 (growth inhibition)
[5] = SK-BR-3, Table 1, series I, 18 hours, means of three independent experiments
[6] = Table 4, 5 days, means of three independent experiments, read-out: HT29 IC50 (growth inhibition)
[7] = SK-BR-3, Table 2, 18 hours, means of three independent experiments
[8] = Table 5, series III, 5 days, read-out: Growth Inhibition (IC50) BT474
[9] = Table 5, series III, 5 days, read-out: Growth Inhibition (IC50) MCF-7
[10] = Table 5, series III, 5 days, read-out: Growth Inhibition (IC50) SKBR-3
[11] = SK-BR-3, Table 5, series III, 18 hours
[12] = Table 5, series III, 5 days, read-out: Growth Inhibition (IC50) HT29

Row | SMILES | IC50 (BT474; [2]) [nM] | IC50 (MCF-7; [3]) [nM] | IC50 (SKBR-3; [4]) [nM] | IC50 (HT29; [6]) [nM] | IC50 (BT474; [8]) [nM] | IC50 (MCF-7; [9]) [nM] | IC50 (SKBR-3; [10]) [nM] | IC50 [1, 11] [nM] | IC50 (HT29; [12]) [nM] | also measured
1 | COc1c(C)cnc(CN2CC(=O)Nc3c(Cl)nc(N)nc32)c1C [Example I-2] | 650 | 1490 | 390 | 1180 | – | – | – | – | – | IC50 (HSP90; Table 1, series I): 880 nM; IC50 [1, 5]: 570 nM
2 | COc1c(C)cnc(CN2CC(=O)N(CCCC(C)C)c3c(Cl)nc(N)nc32)c1C [Example I-3] | 1650 | 3110 | 970 | 2260 | – | – | – | – | – | IC50 (HSP90; Table 1, series I): 900 nM; IC50 [1, 5]: 1910 nM
3 | COc1c(C)cnc(CN2CC(=O)N(C(C)C)c3c(Cl)nc(N)nc32)c1C [Example I-4] | 30 | 50 | 20 | 60 | – | – | – | – | – | IC50 (HSP90; Table 1, series I): 70 nM; IC50 [1, 5]: 50 nM; IC50 (hMEpiC): 320 nM
4 | COc1c(C)cnc(CN2CC(=O)N(C)c3c(Cl)nc(N)nc32)c1C [Example I-5] | 950 | 2190 | 460 | 1470 | – | – | – | – | – | IC50 (HSP90; Table 1, series I): 960 nM; IC50 [1, 5]: 930 nM
5 | COc1c(C)cnc(CN2CC(=O)N(CC(C)C)c3c(Cl)nc(N)nc32)c1C [Example I-6] | 20 | 70 | 10 | 40 | – | – | – | – | – | IC50 (HSP90; Table 1, series I): 50 nM; IC50 (HSP90; Table 2): 50 nM; IC50 [1, 5]: 40 nM; IC50 (hMEpiC): 130 nM
6 | COc1c(C)cnc(CN2c3nc(N)nc(Cl)c3NC(=O)[C@@H]2CCO)c1C [Example I-25] | – | – | – | – | – | – | – | – | – | IC50 (HSP90; Table 2): 640 nM; IC50 [1, 7]: 280 nM
7 | COc1c(C)cnc(CN2c3nc(N)nc(Cl)c3NC(=O)[C@H]2C)c1C [Example I-26] | 410 | 790 | 220 | 470 | – | – | – | – | – | IC50 (HSP90; Table 2): 400 nM; IC50 [1, 7]: 350 nM
8 | COc1c(C)cnc(CN2c3nc(N)nc(Cl)c3NC(=O)[C@@H]2C(C)C)c1C [Example I-28] | 760 | 1600 | 430 | 1060 | – | – | – | – | – | IC50 (HSP90; Table 2): 2140 nM; IC50 [1, 7]: 650 nM
9 | COc1c(C)cnc(CN2c3nc(N)nc(Cl)c3N(C(C)C)C(=O)[C@@H]2C(C)C)c1C [Example I-32] | – | – | – | – | – | – | – | – | – | IC50 (HSP90; Table 2): 80 nM; IC50 [1, 7]: 60 nM
10 | Cc1cnc(CN2CC(=O)N(CC(C)C)c3c(Cl)nc(N)nc32)c(C)c1Br [Example I-34] | 130 | 280 | 60 | 140 | – | – | – | – | – | IC50 (HSP90; Table 3): 60 nM; IC50 ([1]; SK-BR-3, Table 3, 18 hours, means of three independent experiments): 100 nM; IC50 (hMEpiC): 180 nM
11 | COc1c(C)cnc(CN2C(=O)/C(=C\c3cc(C(=O)NCCN4CCC(O)CC4)c[nH]3)c3c(Cl)nc(N)nc32)c1C [III-33, (Z)-5-((2-Amino-4-chloro-7-((4-methoxy-3,5-dimethylpyridin-2-yl)methyl)-6-oxo-6,7-dihydro-5H-pyrrolo[2,3-d]pyrimidin-5-ylidene)methyl)-N-(2-(4-hydroxypiperidin-1-yl)ethyl)-1H-pyrrole-3-carboxamide] | – | – | – | – | 3 | 110 | 0.6 | 40 | 20 | –
12 | COc1c(C)cnc(CN2C(=O)/C(=C\c3cc(C(=O)NCCCN4CCOCC4)c[nH]3)c3c(Cl)nc(N)nc32)c1C [III-34, (Z)-5-((2-Amino-4-chloro-7-((4-methoxy-3,5-dimethylpyridin-2-yl)methyl)-6-oxo-6,7-dihydro-5H-pyrrolo[2,3-d]pyrimidin-5-ylidene)methyl)-N-(3-morpholinopropyl)-1H-pyrrole-3-carboxamide] | – | – | – | – | 40 | 170 | 10 | 20 | 20 | –
13 | COc1c(C)cnc(CN2C(=O)/C(=C\c3cc(C(C)(C)C)n[nH]3)c3c(Cl)nc(N)nc32)c1C [III-52, (Z)-2-Amino-5-((3-tert-butyl-1H-pyrazol-5-yl)methylene)-4-chloro-7-((4-methoxy-3,5-dimethylpyridin-2-yl)methyl)-5H-pyrrolo[2,3-d]pyrimidin-6(7H)-one] | – | – | – | – | 410 | 190 | 140 | 60 | 240 | –
14 | CCN(CC)CCNC(=O)c1c[nH]c(/C=C2\C(=O)N(Cc3cc(C)n(C)n3)c3nc(N)nc(Cl)c32)c1 [III-59, (Z)-5-((2-Amino-4-chloro-7-((1,5-dimethyl-1H-pyrazol-3-yl)methyl)-6-oxo-6,7-dihydro-5H-pyrrolo[2,3-d]pyrimidin-5-ylidene)methyl)-N-(2-(diethylamino)ethyl)-1H-pyrrole-3-carboxamide] | – | – | – | – | 160 | 1700 | 60 | 100 | 320 | –
15 | COc1c(C)cnc(CN2C(=O)/C(=C\c3nc(NC(=O)C4CCOCC4)c[nH]3)c3c(Cl)nc(N)nc32)c1C [III-75, (Z)-N-(2-((2-Amino-4-chloro-7-((4-methoxy-3,5-dimethylpyridin-2-yl)methyl)-6-oxo-6,7-dihydro-5H-pyrrolo[2,3-d]pyrimidin-5-ylidene)methyl)-1H-imidazol-4-yl)tetrahydro-2H-pyran-4-carboxamide] | – | – | – | – | 60 | 160 | 7 | 90 | 50 | –
16 | COc1c(C)cnc(CN2C(=O)/C(=C\c3cc(C(=O)CN4CCC(C(F)(F)F)CC4)c[nH]3)c3c(Cl)nc(N)nc32)c1C [III-94] | – | – | – | – | 790 | 390 | 90 | 80 | 350 | –
17 | CCN(CC)CCNC(=O)c1c(C)[nH]c(/C=C2\C(=O)N(Cc3ncc(C)c(OC)c3C)c3nc(N)nc(Cl)c32)c1C [III-102, (Z)-5-((2-Amino-4-chloro-7-((4-methoxy-3,5-dimethylpyridin-2-yl)methyl)-6-oxo-6,7-dihydro-5H-pyrrolo[2,3-d]pyrimidin-5-ylidene)methyl)-N-(2-(diethylamino)ethyl)-2,4-dimethyl-1H-pyrrole-3-carboxamide] | – | – | – | – | 70 | 21300 | 10 | 40 | 30 | –
